According to the NIST ThermoML archive (doi:10.1021/je9005618):

Test: xn = mol fraction of the nth substance listed
Settings: 101 kPa, Liquid

CCn1cc[n+](C)c1.O=S(=O)([O-])C(F)(F)F [1-ethyl-3-methylimidazolium trifluoromethanesulfonate] + COC(C)=O
Settings | mass density, 278.15 K [kg/m3] | mass density, 288.15 K [kg/m3] | mass density, 298.15 K [kg/m3] | mass density, 308.15 K [kg/m3] | mass density, 318.15 K [kg/m3] | speed of sound, 278.15 K [m/s] | speed of sound, 288.15 K [m/s] | speed of sound, 298.15 K [m/s] | speed of sound, 308.15 K [m/s] | speed of sound, 318.15 K [m/s]
x1 = 0.0502 | 1010.1 | 997.8 | 985.37 | 972.78 | 960.03 | 1259.8 | 1215.5 | 1171.7 | 1128.2 | 1084.8
x1 = 0.1006 | 1058.3 | 1046.52 | 1034.65 | 1022.69 | 1010.6 | 1278.4 | 1236.5 | 1195.1 | 1153.8 | 1112.8
x1 = 0.1501 | 1099.41 | 1088.09 | 1076.72 | 1065.29 | 1053.78 | 1298.1 | 1258.5 | 1219.4 | 1180.5 | 1141.9
x1 = 0.2001 | 1135.42 | 1124.48 | 1113.53 | 1102.55 | 1091.53 | 1316.6 | 1279.2 | 1242.4 | 1205.9 | 1169.7
x1 = 0.3003 | 1196.62 | 1186.31 | 1176.03 | 1165.76 | 1155.5 | 1350.2 | 1316.6 | 1283.5 | 1250.8 | 1218.7
x1 = 0.3999 | 1243.17 | 1233.3 | 1223.49 | 1213.71 | 1203.97 | 1376.9 | 1346 | 1315.8 | 1285.9 | 1256.7
x1 = 0.4997 | 1281.71 | 1272.18 | 1262.72 | 1253.32 | 1243.97 | 1400 | 1371.2 | 1343 | 1315.5 | 1288.5
x1 = 0.6 | 1313.96 | 1304.71 | 1295.53 | 1286.43 | 1277.38 | 1420.4 | 1393.3 | 1366.8 | 1340.9 | 1315.6
x1 = 0.7 | 1341.07 | 1332.05 | 1323.1 | 1314.23 | 1305.42 | 1438.5 | 1412.7 | 1387.6 | 1362.9 | 1338.9
x1 = 0.7986 | 1363.97 | 1355.14 | 1346.39 | 1337.7 | 1329.08 | 1454.4 | 1429.7 | 1405.6 | 1382 | 1358.9
x1 = 0.8509 | 1374.9 | 1366.17 | 1357.51 | 1348.91 | 1340.38 | 1462.2 | 1438 | 1414.4 | 1391.2 | 1368.6
x1 = 0.9008 | 1384.25 | 1375.61 | 1367.03 | 1358.51 | 1350.04 | 1469.1 | 1445.3 | 1422 | 1399.2 | 1377
x1 = 0.9504 | 1393.09 | 1384.52 | 1376.02 | 1367.58 | 1359.19 | 1475.6 | 1452 | 1429.1 | 1406.7 | 1384.8

CCn1cc[n+](C)c1.O=S(=O)([O-])C(F)(F)F [1-ethyl-3-methylimidazolium trifluoromethanesulfonate] + CC(C)=O
Settings | mass density, 278.15 K [kg/m3] | mass density, 288.15 K [kg/m3] | mass density, 298.15 K [kg/m3] | mass density, 308.15 K [kg/m3] | mass density, 318.15 K [kg/m3] | speed of sound, 278.15 K [m/s] | speed of sound, 288.15 K [m/s] | speed of sound, 298.15 K [m/s] | speed of sound, 308.15 K [m/s] | speed of sound, 318.15 K [m/s]
x1 = 0.05 | 887.53 | 876.86 | 866.08 | 855.21 | 844.23 | 1280.3 | 1233.3 | 1191.1 | 1149.9 | 1109.3
x1 = 0.0999 | 953.96 | 943.44 | 932.87 | 922.28 | 911.64 | 1299.7 | 1253.5 | 1214.3 | 1176 | 1138.2
x1 = 0.1501 | 1010.97 | 1000.75 | 990.52 | 980.27 | 969.97 | 1313.5 | 1273.1 | 1236.6 | 1200.8 | 1165.4
x1 = 0.2004 | 1060.17 | 1050.21 | 1040.29 | 1030.37 | 1020.44 | 1327.8 | 1291.8 | 1257.5 | 1223.7 | 1190.4
x1 = 0.2988 | 1138.02 | 1128.31 | 1118.66 | 1109.04 | 1099.45 | 1356.4 | 1324.7 | 1293.5 | 1262.9 | 1232.8
x1 = 0.4007 | 1201.1 | 1191.78 | 1182.49 | 1173.23 | 1164.02 | 1382.4 | 1353 | 1324.3 | 1296.1 | 1268.4
x1 = 0.5006 | 1250.85 | 1241.69 | 1232.59 | 1223.54 | 1214.55 | 1404.5 | 1376.7 | 1349.7 | 1323 | 1297.1
x1 = 0.6007 | 1291.81 | 1282.81 | 1273.89 | 1265.02 | 1256.22 | 1423.5 | 1397.2 | 1371.6 | 1346.5 | 1322
x1 = 0.7014 | 1326.9 | 1318.05 | 1309.28 | 1300.58 | 1291.94 | 1441 | 1415.8 | 1391.3 | 1367.3 | 1343.8
x1 = 0.7998 | 1354.5 | 1345.77 | 1337.12 | 1328.53 | 1320.01 | 1455.6 | 1430.9 | 1407 | 1383.7 | 1361
x1 = 0.8435 | 1365.96 | 1357.29 | 1348.69 | 1340.15 | 1331.68 | 1462.5 | 1437.8 | 1414.3 | 1391.2 | 1368.7
x1 = 0.9006 | 1379.4 | 1370.81 | 1362.28 | 1353.81 | 1345.41 | 1469.4 | 1445.7 | 1422.5 | 1399.9 | 1377.7
x1 = 0.9489 | – | – | – | – | 1356.74 | – | – | – | – | 1384.7
x1 = 0.9501 | 1390.54 | 1382 | 1373.52 | 1365.09 | – | 1475.9 | 1452.1 | 1429.1 | 1406.7 | –
